Like-named read-outs stand apart in the source and are kept apart here.
Legend:
Format in all cases: in vivo
[1] = system: Plasmopara vilicola (the causal agent of grape downy mildew); test: Test A: grape downy mildew, test suspension sprayed on grape seedlings after inoculation, visual disease rating; settings: for pest or weed control at 40 ppm: Plasmopara, 144 h, read-out: Percent Disease Control, Test A
In short: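 Curative spray: spores applied first, plants kept 24 h in saturated air at 20 °C and dried before treatment, then 5 days at 20 °C plus 24 h saturated. Suspension: acetone (3% of volume) in 1:1 acetone/water, 250 ppm Trem 014, sprayed to run-off (200 ppm ≈ 500 g/ha); visual 0–100 control rating.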

[2] = system: Phytophthora infestans (the causal agent of tomato late blight); test: whole plant or invertebrate; settings: for pest or weed control at 40 ppm: Phytophthora infestans, 96 h, read-out: Percent Disease Control, Test C
[3] = system: Phytophthora infestans (the causal agent of tomato late blight); test: whole plant or invertebrate; settings: for pest or weed control at 40 ppm: Phytophthora infestans, 144 h, read-out: Percent Disease Control, Test B
[4] = compounds without asterisk (application rate not given), 100 = 100% disease control, 0 = no control relative to the controls

`O=C(Cn1nc(Cl)cc1Cl)N1CCC(c2nc(C3=NOC(c4ccccc4)C3)cs2)CC1` (stereo not drawn) [Compound 166] was tested, and the “Percent Disease Control, Test A” value ([1]; ** tested at l0 ppm) was 100%, the “Percent Disease Control, Test C” value ([2]; ** tested at l0 ppm) was 98% and the “Percent Disease Control, Test B” value ([3]; ** tested at l0 ppm) was 100%.

`Cc1cc(C(F)(F)F)nn1CC(=O)N1CCC(c2nc(C3=NOC4(CCCCC4)C3)cs2)CC1` [Compound 169] was tested, and the “Percent Disease Control, Test A” value [1, 4] was 100%, the “Percent Disease Control, Test C” value [2, 4] was 99% and the “Percent Disease Control, Test B” value [3, 4] was 100%.

For `Cc1cc(C(F)(F)F)nn1CC(=O)N1CCC(c2nc(C3=NOC4(CCOCC4)C3)cs2)CC1` [Compound 173], the “Percent Disease Control, Test A” value ([1]; * tested at 40 ppm) was 100%, the “Percent Disease Control, Test C” value ([2]; * tested at 40 ppm) was 99% and the “Percent Disease Control, Test B” value ([3]; * tested at 40 ppm) was 100%.

`Cc1cc(C(F)(F)F)nn1CC(=O)N1CCC(c2nc(C3=NOC4(CCCCCC4)C3)cs2)CC1` [Compound 174] was tested, and the “Percent Disease Control, Test A” value ([1]; * tested at 40 ppm) was 100%, the “Percent Disease Control, Test C” value ([2]; * tested at 40 ppm) was 99% and the “Percent Disease Control, Test B” value ([3]; * tested at 40 ppm) was 100%.

`CC(=O)N1N=C(c2csc(C3CCN(C(=O)Cn4nc(C(F)(F)F)cc4C)CC3)n2)OC12CCCc1ccccc12` (stereo not drawn) [Compound 177] was tested, and the “Percent Disease Control, Test A” value ([1]; * tested at 40 ppm) was 93%, the “Percent Disease Control, Test C” value ([2]; * tested at 40 ppm) was 99% and the “Percent Disease Control, Test B” value ([3]; * tested at 40 ppm) was 100%.

For `Cc1cccc(C)c1[C@H]1CC(c2csc(C3CCN(C(=O)Cn4nc(C(F)(F)F)cc4C)CC3)n2)=NO1` [Compound 178, 1-[4-[4-[(5R)-5-(2,6-dimethylphenyl)-4,5-dihydro-3-isoxazolyl]-2-thiazolyl]-1-piperidinyl]-2-[5-methyl-3-(trifluoromethyl)-1H-pyrazol-1-yl]ethanone], the pest or weed control at 40 ppm ([1]; * tested at 40 ppm) was 100%, the pest or weed control at 40 ppm [2] was 99% and the pest or weed control at 40 ppm [3] was 100%.

`Cc1cc(C)c([C@H]2CC(c3csc(C4CCN(C(=O)Cn5nc(C(F)(F)F)cc5C)CC4)n3)=NO2)c(C)c1` [Compound 179, 1-[4-[4-[(5R)-4,5-dihydro-5-(2,4,6-trimethylphenyl)-3-isoxazolyl]-2-thiazolyl]-1-piperidinyl]-2-[5-methyl-3-(trifluoromethyl)-1H-pyrazol-1-yl]ethanone] showed a pest or weed control at 40 ppm ([1]; * tested at 40 ppm) of 99%, a pest or weed control at 40 ppm [2] of 98% and a pest or weed control at 40 ppm [3] of 100%.

In the case of `Cc1cc(C(F)(F)F)nn1CC(=O)N1CCC(c2nc(C3=NOC(c4ccncc4)C3)cs2)CC1` (stereo not drawn) [Compound 180], the “Percent Disease Control, Test A” value [1, 4] is reported as 50%, the “Percent Disease Control, Test C” value [2, 4] is reported as 99% and the “Percent Disease Control, Test B” value [3, 4] is reported as 100%.

For `CC(=O)N1N=C(c2csc(C3CCN(C(=O)Cn4nc(C(F)(F)F)cc4C)CC3)n2)OC1c1ccccc1` (stereo not drawn) [Compound 181], the “Percent Disease Control, Test A” value [1, 4] was 80%, the “Percent Disease Control, Test C” value [2, 4] was 97% and the “Percent Disease Control, Test B” value [3, 4] was 100%.

`CC(=O)N1N=C(c2csc(C3CCN(C(=O)Cn4nc(C(F)(F)F)cc4C)CC3)n2)OC1(C)c1ccccc1` (stereo not drawn) [Compound 182] was tested, and the “Percent Disease Control, Test A” value [1, 4] was 99%, the “Percent Disease Control, Test C” value [2, 4] was 97% and the “Percent Disease Control, Test B” value [3, 4] was 100%.

In the case of `Cc1cc(C(F)(F)F)nn1CC(=O)N1CCC(c2nc(C3=NNC(c4ccccc4)C3)cs2)CC1` (stereo not drawn) [Compound 183], the “Percent Disease Control, Test A” value ([1]; * tested at 40 ppm) is reported as 92%, the “Percent Disease Control, Test C” value ([2]; * tested at 40 ppm) is reported as 33% and the “Percent Disease Control, Test B” value ([3]; * tested at 40 ppm) is reported as 92%.

`Cc1cc(C(F)(F)F)nn1CC(=O)N1CCC(c2nc(C3=NN(C)C(c4ccccc4)C3)cs2)CC1` (stereo not drawn) [Compound 184] was tested, and the “Percent Disease Control, Test A” value ([1]; * tested at 40 ppm) was 99%, the “Percent Disease Control, Test C” value ([2]; * tested at 40 ppm) was 73% and the “Percent Disease Control, Test B” value ([3]; * tested at 40 ppm) was 95%.

Work on `Cc1cc(C(F)(F)F)nn1CC(=O)N1CCC(c2nc(C3=NO[C@]4(COc5ccccc54)C3)cs2)CC1` [Compound 185, 2-[5-methyl-3-(trifluoromethyl)-1H-pyrazol-1-yl]-1-[4-[4-(3R)-spiro[benzofuran-3(2H),5′(4′H)-isoxazol]-3′-yl-2-thiazolyl]-1-piperidinyl]ethanone] yielded a pest or weed control at 40 ppm ([1]; * tested at 40 ppm) of 100%, a pest or weed control at 40 ppm [2] of 98% and a pest or weed control at 40 ppm [3] of 100%.

With `Cc1cc(C(F)(F)F)nn1CC(=O)N1CCC(c2nc(C3=NOC(N4CCCC4=O)C3)cs2)CC1` (stereo not drawn) [Compound 188] the “Percent Disease Control, Test A” value ([1]; * tested at 40 ppm) was 99%, the “Percent Disease Control, Test C” value ([2]; * tested at 40 ppm) was 99% and the “Percent Disease Control, Test B” value ([3]; * tested at 40 ppm) was 100%.

`Cc1cc(C(F)(F)F)nn1CC(=O)N1CCC(c2nc(C3=NOC(c4ccccc4Br)C3)cs2)CC1` (stereo not drawn) [Compound 189] was tested, and the “Percent Disease Control, Test A” value ([1]; * tested at 40 ppm) was 100%, the “Percent Disease Control, Test C” value ([2]; * tested at 40 ppm) was 99% and the “Percent Disease Control, Test B” value ([3]; * tested at 40 ppm) was 100%.

With `Cc1cc(C(F)(F)F)nn1CC(=O)N1CCC(c2nc(CN3C(=O)c4ccccc4C3=O)cs2)CC1` [Compound 191] the “Percent Disease Control, Test A” value [1, 4] was 99%, the “Percent Disease Control, Test C” value [2, 4] was 99% and the “Percent Disease Control, Test B” value [3, 4] was 100%.

For `Cc1cc(C(F)(F)F)nn1CC(=O)N1CCC(c2nc(C3=NOC4(CCCCc5ccccc54)C3)cs2)CC1` (stereo not drawn) [Compound 192], the “Percent Disease Control, Test A” value ([1]; * tested at 40 ppm) was 99%, the “Percent Disease Control, Test C” value ([2]; * tested at 40 ppm) was 99% and the “Percent Disease Control, Test B” value ([3]; * tested at 40 ppm) was 100%.

With `Cc1cc(C(F)(F)F)nn1CC(=O)N1CCC(c2nc(C3=NOC4(CCC4)C3)cs2)CC1` [Compound 193] the “Percent Disease Control, Test A” value ([1]; * tested at 40 ppm) was 100%, the “Percent Disease Control, Test C” value ([2]; * tested at 40 ppm) was 99% and the “Percent Disease Control, Test B” value ([3]; * tested at 40 ppm) was 100%.

From US9920030B2 (priority 2006, dated 2018)
